Patent US20250332178A1, “METHODS OF TREATING MYCOBACTERIAL INFECTIONS USING TETRACYCLINE COMPOUNDS” (priority 2018, published 2025)
Converted amounts (≈) assume the structure as drawn. Where two headings read alike, the source gives them in different places.

Columns and labels:
Experiment in all cases: MIC (CLSI broth dilution), RGM isolates
Assay type in all cases: cell-based
M. immunogenum group = test system: M. immunogenum group
M. abscessus complex = conditions: Mycobacteroides abscessus
M. smegmatis group = conditions: Mycolicibacterium smegmatis
M. fortuitum group = conditions: Mycolicibacterium fortuitum, read-out: MIC, CLA Extended

CC[C@H]1OC(=O)[C@H](C)[C@@H](O[C@H]2C[C@@](C)(OC)[C@@H](O)[C@H](C)O2)[C@H](C)[C@@H](O[C@@H]2O[C@H](C)C[C@H](N(C)C)[C@H]2O)[C@](C)(OC)C[C@@H](C)C(=O)[C@H](C)[C@@H](O)[C@]1(C)O [clarithromycin]
MIC (M. immunogenum group; 336 h, isolate 35, M. immunogenum, extended reading, up to/including 14 days, read-out: MIC, CLA Extended): 1 mg/L (≈ 1.34 µM)
MIC (M. immunogenum group; 336 h, isolate 36, M. immunogenum, extended reading, up to/including 14 days, read-out: MIC, CLA Extended): 2 mg/L (≈ 2.67 µM)
MIC (M. immunogenum group; 336 h, isolate 37, M. immunogenum, extended reading, up to/including 14 days, read-out: MIC, CLA Extended): 2 mg/L (≈ 2.67 µM)
MIC (M. immunogenum group; 336 h, isolate 38, M. immunogenum, extended reading, up to/including 14 days, read-out: MIC, CLA Extended): 2 mg/L (≈ 2.67 µM)
MIC (M. immunogenum group; isolate 35, M. immunogenum, initial reading, generally 3-4 days, read-out: MIC, CLA Initial): 0.25 mg/L (≈ 0.334 µM)
MIC (M. immunogenum group; isolate 36, M. immunogenum, initial reading, generally 3-4 days, read-out: MIC, CLA Initial): 0.12 mg/L (≈ 0.16 µM)
MIC (M. immunogenum group; isolate 37, M. immunogenum, initial reading, generally 3-4 days, read-out: MIC, CLA Initial): 1 mg/L (≈ 1.34 µM)
MIC (M. immunogenum group; isolate 38, M. immunogenum, initial reading, generally 3-4 days, read-out: MIC, CLA Initial): 0.5 mg/L (≈ 0.668 µM)
MIC (M. abscessus complex; 168 h, isolate 12, Type 6 abscessus, extended reading (7 d), read-out: MIC, CLA Extended): > 32 mg/L
MIC (M. abscessus complex; 240 h, isolate 7, Type 1 abscessus, extended reading (10 d), read-out: MIC, CLA Extended): > 32 mg/L
MIC (M. abscessus complex; 240 h, isolate 9, Type 1 abscessus, extended reading (10 d), read-out: MIC, CLA Extended): > 32 mg/L
MIC (M. abscessus complex; 240 h, isolate 11, Type 6 abscessus, extended reading (10 d), read-out: MIC, CLA Extended): > 32 mg/L
MIC (M. abscessus complex; 240 h, isolate 15, Type 7 abscessus, extended reading (10 d), read-out: MIC, CLA Extended): > 32 mg/L
MIC (M. abscessus complex; 240 h, isolate 16, Type 7 abscessus, extended reading (10 d), read-out: MIC, CLA Extended): > 32 mg/L
MIC (M. abscessus complex; 240 h, isolate 17, Type 8 abscessus, extended reading (10 d), read-out: MIC, CLA Extended): > 32 mg/L
MIC (M. abscessus complex; 264 h, isolate 8, Type 1 abscessus, extended reading (11 d), read-out: MIC, CLA Extended): > 32 mg/L
MIC (M. abscessus complex; 264 h, isolate 10, Type 1 abscessus, extended reading (11 d), read-out: MIC, CLA Extended): 32 mg/L (≈ 42.8 µM)
MIC (M. abscessus complex; 264 h, isolate 13, Type 6 abscessus, extended reading (11 d), read-out: MIC, CLA Extended): > 32 mg/L
MIC (M. abscessus complex; 336 h, isolate 1, MAB30, extended reading, up to/including 14 days, read-out: MIC, CLA Extended): 1 mg/L (≈ 1.34 µM)
MIC (M. abscessus complex; 336 h, isolate 2, MAB30, extended reading, up to/including 14 days, read-out: MIC, CLA Extended): 2 mg/L (≈ 2.67 µM)
MIC (M. abscessus complex; 336 h, isolate 3, MAB30, extended reading, up to/including 14 days, read-out: MIC, CLA Extended): 2 mg/L (≈ 2.67 µM)
MIC (M. abscessus complex; 336 h, isolate 4, massiliense, extended reading, up to/including 14 days, read-out: MIC, CLA Extended): 2 mg/L (≈ 2.67 µM)
MIC (M. abscessus complex; 336 h, isolate 5, massiliense/subsp. abs hybrid, extended reading, up to/including 14 days, read-out: MIC, CLA Extended): ≤ 0.06 mg/L
MIC (M. abscessus complex; 336 h, isolate 14, Type 6 abscessus, extended reading (14 d), read-out: MIC, CLA Extended): > 32 mg/L
MIC (M. abscessus complex; isolate 1, MAB30, initial reading, generally 3-4 days, read-out: MIC, CLA Initial): ≤ 0.06 mg/L
MIC (M. abscessus complex; isolate 2, MAB30, initial reading, generally 3-4 days, read-out: MIC, CLA Initial): ≤ 0.06 mg/L
MIC (M. abscessus complex; isolate 3, MAB30, initial reading, generally 3-4 days, read-out: MIC, CLA Initial): 0.5 mg/L (≈ 0.668 µM)
MIC (M. abscessus complex; isolate 4, massiliense, initial reading, generally 3-4 days, read-out: MIC, CLA Initial): 0.12 mg/L (≈ 0.16 µM)
MIC (M. abscessus complex; isolate 5, massiliense/subsp. abs hybrid, initial reading, generally 3-4 days, read-out: MIC, CLA Initial): ≤ 0.06 mg/L
MIC (M. abscessus complex; isolate 6, Type 1 abscessus, initial reading, generally 3-4 days, read-out: MIC, CLA Initial): 0.25 mg/L (≈ 0.334 µM)
MIC (M. abscessus complex; isolate 7, Type 1 abscessus, initial reading, generally 3-4 days, read-out: MIC, CLA Initial): 0.12 mg/L (≈ 0.16 µM)
MIC (M. abscessus complex; isolate 8, Type 1 abscessus, initial reading, generally 3-4 days, read-out: MIC, CLA Initial): 0.12 mg/L (≈ 0.16 µM)
MIC (M. abscessus complex; isolate 9, Type 1 abscessus, initial reading, generally 3-4 days, read-out: MIC, CLA Initial): 2 mg/L (≈ 2.67 µM)
MIC (M. abscessus complex; isolate 10, Type 1 abscessus, initial reading, generally 3-4 days, read-out: MIC, CLA Initial): 0.25 mg/L (≈ 0.334 µM)
MIC (M. abscessus complex; isolate 11, Type 6 abscessus, initial reading, generally 3-4 days, read-out: MIC, CLA Initial): 0.12 mg/L (≈ 0.16 µM)
MIC (M. abscessus complex; isolate 12, Type 6 abscessus, initial reading, generally 3-4 days, read-out: MIC, CLA Initial): 0.25 mg/L (≈ 0.334 µM)
MIC (M. abscessus complex; isolate 13, Type 6 abscessus, initial reading, generally 3-4 days, read-out: MIC, CLA Initial): 0.25 mg/L (≈ 0.334 µM)
MIC (M. abscessus complex; isolate 14, Type 6 abscessus, initial reading, generally 3-4 days, read-out: MIC, CLA Initial): ≤ 0.06 mg/L
MIC (M. abscessus complex; isolate 15, Type 7 abscessus, initial reading, generally 3-4 days, read-out: MIC, CLA Initial): 0.5 mg/L (≈ 0.668 µM)
MIC (M. abscessus complex; isolate 16, Type 7 abscessus, initial reading, generally 3-4 days, read-out: MIC, CLA Initial): ≤ 0.06 mg/L
MIC (M. abscessus complex; isolate 17, Type 8 abscessus, initial reading, generally 3-4 days, read-out: MIC, CLA Initial): 0.25 mg/L (≈ 0.334 µM)
MIC (M. smegmatis group; 144 h, isolate 49, M. goodii, extended reading (6 d), read-out: MIC, CLA Extended): > 32 mg/L
MIC (M. smegmatis group; isolate 49, M. goodii, initial reading, generally 3-4 days, read-out: MIC, CLA Initial): 16 mg/L (≈ 21.4 µM)
MIC (M. smegmatis group; isolate 50, M. wolinskyi, initial reading, generally 3-4 days, read-out: MIC, CLA Initial): > 32 mg/L
MIC (M. fortuitum group; 168 h, isolate 23, M. fortuitum, extended reading (7 d)): > 32 mg/L
MIC (M. fortuitum group; 168 h, isolate 25, M. fortuitum, extended reading (7 d)): > 32 mg/L
MIC (M. fortuitum group; 168 h, isolate 29, M. porcinum/M. boenickei, extended reading (7 d)): > 32 mg/L
MIC (M. fortuitum group; 240 h, isolate 24, M. fortuitum, extended reading (10 d)): > 32 mg/L
MIC (M. fortuitum group; 240 h, isolate 27, M. porcinum, extended reading (10 d)): > 32 mg/L
MIC (M. fortuitum group; 240 h, isolate 28, M. porcinum/M. boenickei, extended reading (10 d)): > 32 mg/L
MIC (M. fortuitum group; 336 h, isolate 26, M. porcinum, extended reading, up to/including 14 days): > 32 mg/L
